# Measured values: patent publication US4794188A, “Certain unsymmetrical quinolinyl ethers having anti-inflammatory and anti-allergic activity” (USV Pharmaceutical Corporation, priority 1985, dated 1988)
# Target: T1, 5-LOX (Homo sapiens, UniProt P09917)
# T1 sequence (P09917 1-674): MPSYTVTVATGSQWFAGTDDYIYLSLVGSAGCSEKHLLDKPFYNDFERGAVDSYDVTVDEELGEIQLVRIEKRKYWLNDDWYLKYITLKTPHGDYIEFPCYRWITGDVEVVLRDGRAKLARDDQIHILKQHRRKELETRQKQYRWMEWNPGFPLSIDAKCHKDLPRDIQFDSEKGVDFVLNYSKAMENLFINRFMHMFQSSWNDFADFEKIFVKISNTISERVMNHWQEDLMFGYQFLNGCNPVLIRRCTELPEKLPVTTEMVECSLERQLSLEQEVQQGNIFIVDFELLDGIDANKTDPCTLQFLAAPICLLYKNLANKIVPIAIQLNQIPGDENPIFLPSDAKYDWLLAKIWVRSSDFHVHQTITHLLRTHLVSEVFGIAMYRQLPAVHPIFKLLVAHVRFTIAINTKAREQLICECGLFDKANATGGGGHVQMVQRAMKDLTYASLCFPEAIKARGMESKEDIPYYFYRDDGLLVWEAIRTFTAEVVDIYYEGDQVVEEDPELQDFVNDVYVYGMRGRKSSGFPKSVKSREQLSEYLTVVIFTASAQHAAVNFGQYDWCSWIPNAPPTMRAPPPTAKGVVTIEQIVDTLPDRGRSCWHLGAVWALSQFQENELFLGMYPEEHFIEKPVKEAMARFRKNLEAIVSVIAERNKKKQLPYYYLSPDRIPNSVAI
# Assay: 5-LOX inhibition (5-LOX I50, Table I)
# Format: biochemical
row,Structure (SMILES),IC50
1,CC(=O)CC(O)c1cccc(OCc2ccc3ccccc3n2)c1 (stereo not shown),180 nM
2,CCCCCC(O)c1cccc(OCc2ccccn2)c1 (stereo not shown),500 nM
3,CCCCC(C)C(O)c1cccc(OCc2ccc3ccccc3n2)c1 (stereo not shown),200 nM
4,CCCCCC(O)c1cccc(OCc2cccc(C#N)n2)c1 (stereo not shown),30000 nM
5,CCCCCC(O)c1cccc(OCc2ccncc2)c1 (stereo not shown),3000 nM
6,CCCCCC(O)c1cccc(OCc2cccc(C(=O)O)n2)c1 (stereo not shown),1900 nM
7,CC(O)(CCCCCOc1ccccc1)c1cccc(OCc2ccc3ccccc3n2)c1 (stereo not shown),800 nM
8,"CCCCC=Cc1cccc(OCc2ccc3ccccc3n2)c1 [3-(CHCHC4 H9), 2-[3-(1-Hexenyl)phenoxymethyl]quinoline]",2400 nM
9,CCCCCC(=O)c1cccc(OCc2ccc3ccccc3n2)c1,150 nM
10,OC(CCCCCOc1ccccc1)c1cccc(OCc2ccc3ccccc3n2)c1 (stereo not shown),600 nM
11,CCCCC(C)(C)C(O)c1cccc(OCc2ccc3ccccc3n2)c1 (stereo not shown),270 nM
12,CCCCCC(C)(O)c1cccc(OCc2ccccn2)c1 (stereo not shown),300 nM
13,CCCCC(C)(C)C(C)(O)c1cccc(OCc2ccc3ccccc3n2)c1 (stereo not shown),270 nM
14,CCCCCC(O)c1cccc(OCc2cccnc2)c1 (stereo not shown),3000 nM
15,CCCCCC(O)c1ccc(OCc2ccc3ccccc3n2)cc1 (stereo not shown),350 nM
16,CCCCCC(O)c1ccc(Oc2ccc3ccccc3n2)cc1 (stereo not shown),350 nM
17,CCCCCC(NC)c1cccc(OCc2ccccn2)c1 (stereo not shown),2200 nM
18,CCCCCC(C)(O)c1cccc(OCc2ccc3ccccc3n2)c1 (stereo not shown),100 nM
19,OC(CCCCCOc1cccc(Cl)c1)c1cccc(OCc2ccc3ccccc3n2)c1 (stereo not shown),600 nM
